Assay: Nav 1.7In Vitro PX Assay: HEK 293 cells stably transfected with human Nav1.7 were recorded in whole cell voltage clamp mode with the PatchXpress automated electrophysiology system (Molecular Devices, LLC, Sunnyvale, Calif.). Compound effects were measured on a partially inactivated state of the sodium channel. Cells were clamped to a holding potential yielding 20 to 50% inactivation. To elicit sodium current, channels were activated by pulsing to −10 mV for 20 msec. This voltage protocol was repeated at a rate of 0.1 Hz throughout the experiment. A single concentration of test compound was applied to cells for a duration of 3 minutes. Peak sodium current was measured at the end of the compound addition period to determine percent inhibition. Three to five cells were tested per concentration, and IC50 curves were fitted to percent inhibition as a function of concentration.
Conditions: HEK293

IC50 [nM] | SMILES
28 | CNC(=O)N(c1ccc(S(=O)(=O)Nc2ccon2)cn1)c1cc(Cl)c(-c2cc(F)cc(Cl)c2)cc1OC
86 | CNC(=O)N(c1ccc(S(=O)(=O)Nc2ccon2)cn1)c1cc(F)c(-c2cc(F)c(F)c(F)c2)cc1OC

— ChEMBL document CHEMBL5727726, “Pyridine sulfonamides” (2020)
